“Also recorded” adds a separate entry of the source.
What was measured:
TSSK1 = target: T1, TSSK1 (Homo sapiens, UniProt Q9BXA7); assay: Kinase assay TSSK1; conditions: read-out: Target biochemical activity IC50, TSSK1
T1 sequence (Q9BXA7 1-367): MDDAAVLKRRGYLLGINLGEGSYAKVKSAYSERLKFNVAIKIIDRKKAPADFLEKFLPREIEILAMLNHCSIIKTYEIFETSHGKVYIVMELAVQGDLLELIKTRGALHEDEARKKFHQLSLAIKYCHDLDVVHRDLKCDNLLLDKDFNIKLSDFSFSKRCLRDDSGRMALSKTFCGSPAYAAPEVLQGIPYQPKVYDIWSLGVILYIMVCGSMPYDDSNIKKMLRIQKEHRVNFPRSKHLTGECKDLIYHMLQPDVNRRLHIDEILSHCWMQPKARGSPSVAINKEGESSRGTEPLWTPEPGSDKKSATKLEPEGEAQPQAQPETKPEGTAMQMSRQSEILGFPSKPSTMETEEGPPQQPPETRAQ

[1] = system: CDK9's activity on Pol II phosphorylation; assay: Western blot of Pol II phosphorylation; format: cell-based; conditions: MCF-7 cells, 48 hours
Experimental: (§1) MCF-7 cells were treated with compound 18 (F200) and Roscovitine for 48 hours. Then the cells were analyzed by TUNEL assay and Western blot to detect apoptosis.
(§2) For Western blot, cells were harvested and lysed by lysis buffer. Western blot were performed with anti-PARP or anti-Pol[…] II antibody. During apoptosis, PARP is cleaved from a 113KD intact form into smaller 89KD and 24KD fragments.

THP-1 = assay: Cellular effect in mammalian cells, THP-1; format: cell-based; conditions: Homo sapiens
MCF-7 cells = assay: Cell apoptosis assay (TUNEL, PARP Western blot); format: cell-based; conditions: 48 hours, TUNEL and PARP Western blot
Experimental: as §1
For TUNEL assay, cells were fixed and blocking in 6-well plate. DNA strand breaks were labeled by terminal deoxynucleotidyl transferase (TdT), which catalyzed polymerization of labeled nucleotides to free 3′-OH DNA ends in template-independent manner Fluorescein could be detected by anti-fluorescein antibody, conjugated with horse-radish-peroxidase (POD). After DAB reaction, stained cells were analyzed and counted under light microscope.
as §2

HT29 = assay: Cellular effect in mammalian cells, HT29; format: cell-based; conditions: Homo sapiens, HT-29
rabbit neutrophils = assay: Induction of neutrophil apoptosis (Annexin-V and PI staining); format: cell-based
Experimental: • 1. Acquire 5-10 ml blood from adult rabbit • 2. Isolate neutrophils using RED BLOOD CELL LYSING BUFFER (SIGMA Cat No. R7757) and rabbit isolation kit (TBDsciences, Cat No. LZS11133) • 3. Treat neutrophils with reference compounds or SG45 for 15 h • 4. Apoptosis assay (Annexin-V and PI staining)
Harvest neutrophils by centrifugation at 1,000 rpm, 4° C. for 7 min Remove culture medium after centrifugation. Wash the cell pellet with pre-cooled PBS 200 l once. The re-suspend the cells with pre-cooled PBS 100 l. Incubate the cells with 2 l dye PI (BD Biosciences. Cat. No. 556463) and 2 l anti-Annexin V-PE (BD Biosciences. Cat. No. 556421) at room temperature under the darkness for 30 minutes. Remove the antibodies by centrifugation at 1,000 rpm, 4° C. for 2 min Resuspend the cells in 200 l pre-cooled PBS Finally, load the cell suspension to the FACS machine to acquire the staining results: […]

L02 = assay: Cellular effect in mammalian cells, L02; format: cell-based; conditions: Homo sapiens
[2] = Preliminary toxicology study in mice (acute toxicity); format: in vivo; conditions: mouse, in vivo, po, p.o. (gavage), two weeks
Experimental: (§3) Preliminary toxicology study in mice: Mice were divided into four groups (n=10 in each), 500 mg/kg, 1,000 mg/kg or 2,000 mg/kg were administered respectively to three groups by gavage. Negative control is 0.5% CMC-Na. After two weeks, mice were sacrificed and tissue section of visceral organs were analyzed by Hematoxylin-Eosin staining

mice = assay: as above; format: in vivo; conditions: p.o.
Experimental: as §3

[3] = PK profile: rat IV/PO study; format: in vivo; conditions: oral administration
lung carcinoma (H460) = assay: Tumor growth inhibition, H460 xenograft; format: in vivo, SCID-bg mice; conditions: 150 mg/kg, oral administration
Experimental: Animal: SCID-bg mice Tumor type: lung carcinoma (H460) Treatment: Single PO dose for 21 days (starting at day 7 following tumor inoculation) Endpoint: tumor volume and mean luciferase activity by Xenogen (Caliper) machine: SCID-bg mice were implanted with NCI-H460 cells at 5×10^6 cells/mouse on Day 0. Compound 18 treatment began on Day 7. […] In model group, the vehicle was used instead of compound 18. Tumor volume and mean luciferase activity by Xenogen technology were measured once per there days.

MRC-5 = assay: Cellular effect in mammalian cells, MRC-5; format: cell-based; conditions: Homo sapiens, MRC5
H460 = assay: Cellular effect in mammalian cells, H460; format: cell-based; conditions: Homo sapiens, NCI-H460
K562 = assay: Cellular effect in mammalian cells, K562; format: cell-based; conditions: Homo sapiens
Jurkat = assay: Cellular effect in mammalian cells, Jurkat; format: cell-based; conditions: Homo sapiens
HepG2 = assay: Cellular effect in mammalian cells, HepG2; format: cell-based; conditions: Homo sapiens
HCT116 = assay: Cellular effect in mammalian cells, HCT116; format: cell-based; conditions: Homo sapiens, HCT-116
SRC = SRC (Homo sapiens, UniProt P12931); assay: Kinase assay SRC; conditions: read-out: Target biochemical activity IC50, SRC
Sequence of SRC (P12931 whole entry, species assumed): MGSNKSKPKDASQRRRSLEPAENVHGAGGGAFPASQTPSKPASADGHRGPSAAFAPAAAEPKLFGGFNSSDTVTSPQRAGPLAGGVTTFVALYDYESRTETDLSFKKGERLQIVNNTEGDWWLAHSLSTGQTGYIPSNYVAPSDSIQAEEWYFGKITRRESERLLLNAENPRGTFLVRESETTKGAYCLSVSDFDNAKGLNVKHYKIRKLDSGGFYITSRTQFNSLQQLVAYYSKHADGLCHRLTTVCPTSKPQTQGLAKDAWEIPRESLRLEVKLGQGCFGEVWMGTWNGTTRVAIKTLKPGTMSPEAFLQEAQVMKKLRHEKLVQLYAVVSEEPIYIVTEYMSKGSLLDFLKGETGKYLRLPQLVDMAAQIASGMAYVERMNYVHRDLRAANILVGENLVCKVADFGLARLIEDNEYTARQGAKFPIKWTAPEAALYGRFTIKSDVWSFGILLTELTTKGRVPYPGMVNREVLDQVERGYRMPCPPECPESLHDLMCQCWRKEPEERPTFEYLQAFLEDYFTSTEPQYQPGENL

MCF-7 = assay: Cellular effect in mammalian cells, MCF-7; format: cell-based; conditions: Homo sapiens, MCF7
HeLa = assay: Cellular effect in mammalian cells, HeLa; format: cell-based; conditions: Homo sapiens
CDK2 = CDK2 (Homo sapiens, UniProt P24941); assay: Kinase assay CDK2; conditions: read-out: Target biochemical activity IC50, CDK2
CDK7 = CDK7 (Homo sapiens, UniProt P50613); assay: Kinase assay CDK7; conditions: read-out: Target biochemical activity IC50, CDK7
Sequence of CDK7 (P50613 whole entry, species assumed): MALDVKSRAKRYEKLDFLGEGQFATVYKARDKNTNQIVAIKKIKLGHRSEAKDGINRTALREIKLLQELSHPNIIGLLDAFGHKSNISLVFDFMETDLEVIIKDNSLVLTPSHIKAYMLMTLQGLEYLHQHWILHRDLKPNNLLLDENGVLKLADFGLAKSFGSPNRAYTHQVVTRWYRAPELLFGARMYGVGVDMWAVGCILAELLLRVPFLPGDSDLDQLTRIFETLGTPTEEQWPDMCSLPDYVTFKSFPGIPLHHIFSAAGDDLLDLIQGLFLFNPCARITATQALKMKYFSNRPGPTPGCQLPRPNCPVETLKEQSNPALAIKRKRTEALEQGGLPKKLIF
Sequence of CDK7 (P51946 whole entry partner, species assumed): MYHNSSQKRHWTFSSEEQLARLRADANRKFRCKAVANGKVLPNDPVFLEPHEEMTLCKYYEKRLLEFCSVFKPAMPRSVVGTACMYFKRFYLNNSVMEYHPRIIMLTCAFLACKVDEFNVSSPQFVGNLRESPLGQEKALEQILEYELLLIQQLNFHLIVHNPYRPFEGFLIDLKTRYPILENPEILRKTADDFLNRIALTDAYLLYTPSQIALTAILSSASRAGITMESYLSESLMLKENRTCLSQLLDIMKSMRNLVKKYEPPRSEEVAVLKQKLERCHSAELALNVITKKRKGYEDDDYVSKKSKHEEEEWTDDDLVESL
Sequence of CDK7 (P51948 whole entry partner, species assumed): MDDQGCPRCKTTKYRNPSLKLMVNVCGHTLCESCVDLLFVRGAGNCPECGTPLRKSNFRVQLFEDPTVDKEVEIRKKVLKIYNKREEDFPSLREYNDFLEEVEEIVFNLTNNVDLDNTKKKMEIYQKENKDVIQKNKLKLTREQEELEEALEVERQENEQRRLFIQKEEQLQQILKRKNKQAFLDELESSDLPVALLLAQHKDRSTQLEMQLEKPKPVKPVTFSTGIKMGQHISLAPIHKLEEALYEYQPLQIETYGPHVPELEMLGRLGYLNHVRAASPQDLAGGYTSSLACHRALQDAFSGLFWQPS

Aurora B = Aurora B (Homo sapiens, UniProt Q96GD4); assay: Kinase assay Aurora B; conditions: read-out: Target biochemical activity IC50, Aurora B
Sequence of Aurora B (Q96GD4 whole entry): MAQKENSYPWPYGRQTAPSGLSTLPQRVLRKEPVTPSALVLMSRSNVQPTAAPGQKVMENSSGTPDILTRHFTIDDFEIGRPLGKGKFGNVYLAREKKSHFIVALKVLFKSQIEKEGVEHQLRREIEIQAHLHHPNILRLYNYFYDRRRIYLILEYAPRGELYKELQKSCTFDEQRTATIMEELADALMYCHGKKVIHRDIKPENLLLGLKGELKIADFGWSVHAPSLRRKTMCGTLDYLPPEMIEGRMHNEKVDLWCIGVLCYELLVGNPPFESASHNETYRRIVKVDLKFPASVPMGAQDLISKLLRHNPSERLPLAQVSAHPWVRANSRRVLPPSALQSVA

Structure (SMILES) | IC50 (TSSK1) | IC50 (THP-1) | IC50 (HT29) | IC50 (K562) | IC50 (Jurkat) | IC50 (HCT116) | IC50 (MCF-7) | IC50 (HeLa) | IC50 (L02) | IC50 (MRC-5) | further results
CCn1cc(-c2ccnc(Nc3cccc(S(N)(=O)=O)c3)n2)c2cccnc21 [Compound 18, 3-(4-(1-Ethyl-1H-pyrrolo[2,3-b]pyridin-3-yl)pyrimidin-2-ylamino)benzenesulfonamide] | > 10 µM | 5.3 µM | 0.59 µM | – | – | – | – | – | 4.3 µM | – | Inhibition of CDK9's activity on Pol II phosphorylation [1]: inhibited CDK9's activity on Pol II phosphorylation; Induction of cell apoptosis (MCF-7 cells): induced apoptosis of cells; also recorded: induced cell apoptosis with dose-dependent manner; Induction of neutrophil apoptosis compared with Roscovitine (rabbit neutrophils; 15 h, FIG. 5): stronger capability in inducing neutrophil apoptosis than Roscovitine; Apoptotic morphological changes of neutrophils (rabbit neutrophils; increasing dose (0.5, 2, 10 μM), FIG. 4): typical apoptotic morphological changes; LD50 at 2 weeks [2]: > 2000 mg/kg; MTD at 2 weeks [2]: > 500 mg/kg; Tolerability in animals (mice): excellent tolerability in animals; Oral availability (in words) [3]: good oral availability; Tumor growth inhibition (in words) (lung carcinoma (H460)): able to inhibit tumor growth
CCn1cc(-c2ccnc(Nc3cccc(O)c3)n2)c2ccnc(Cl)c21 [SG48, 3-(4-(7-Chloro-1-ethyl-1H-pyrrolo[2,3-c]pyridin-3-yl)pyrimidin-2-ylamino)phenol] | 0.14 µM | > 10 µM | 8.31 µM | 4.75 µM | 1.92 µM | 4.67 µM | 9.4 µM | 3.31 µM | 8.1 µM | > 10 µM | IC50 (H460): 4.66 µM; IC50 (HepG2): 6.1 µM; IC50 (SRC): > 10 µM; IC50 (CDK2): 0.004 µM; IC50 (CDK7): 3.28 µM
CCCn1cc(-c2ccnc(Nc3ccc(C)c(S(=O)(=O)N4CCOCC4)c3)n2)c2ccncc21 [SG52, N-(4-Methyl-3-(morpholinosulfonyl)phenyl)-4-(1-propyl-1H-pyrrolo[2,3-c]pyridin-3-yl)pyrimidin-2-amine] | – | – | – | – | – | – | – | – | 1.4 µM | – | –
CCCn1cc(-c2ccnc(Nc3ccc(S(N)(=O)=O)cc3)n2)c2nc(Cl)cc(C)c21 [SG54, 4-(4-(5-Chloro-7-methyl-1-propyl-1H-pyrrolo[3,2-b]pyridin-3-yl)pyrimidin-2-ylamino)benzenesulfonamide] | – | – | – | – | – | – | – | – | 8.37 µM | – | –

Now from value to molecule, other results behind:

IC50 (TSSK1) | IC50 (THP-1) | IC50 (HT29) | IC50 (K562) | IC50 (Jurkat) | IC50 (HCT116) | IC50 (MCF-7) | IC50 (HeLa) | Structure (SMILES) | IC50 (L02) | IC50 (MRC-5) | further results
– | 3.68 µM | 8.59 µM | 3.52 µM | 0.61 µM | 4.28 µM | > 10 µM | 2.69 µM | CCn1cc(-c2ccnc(Nc3ccc(O)cc3)n2)c2ccnc(Cl)c21 [SG49, 4-(4-(7-Chloro-1-ethyl-1H-pyrrolo[2,3-c]pyridin-3-yl)pyrimidin-2-ylamino)phenol] | 7.34 µM | 5.82 µM | IC50 (H460): 2.95 µM; IC50 (HepG2): 5.55 µM
0.52 µM | – | 1.16 µM | 0.61 µM | 0.4 µM | 0.28 µM | 0.45 µM | 0.23 µM | CCn1cc(-c2ccnc(Nc3cccc(S(N)(=O)=O)c3)n2)c2ccnc(Cl)c21 [SG50, 3-(4-(7-Chloro-1-ethyl-1H-pyrrolo[2,3-c]pyridin-3-yl)pyrimidin-2-ylamino)benzenesulfonamide] | – | 3.36 µM | IC50 (SRC): > 10 µM; IC50 (CDK2): 0.004 µM; IC50 (CDK7): > 10 µM; IC50 (Aurora B): > 10 µM
– | – | – | – | 0.005 µM | – | – | – | CCCn1cc(-c2ccnc(Nc3cccc(S(N)(=O)=O)c3)n2)c2ccncc21 [SG51, 3-(4-(1-Propyl-1H-pyrrolo[2,3-c]pyridin-3-yl)pyrimidin-2-ylamino)benzenesulfonamide] | – | – | –
– | – | 0.25 µM | – | – | 3.56 µM | – | – | CCCn1cc(-c2ccnc(Nc3cccc(S(N)(=O)=O)c3)n2)c2nc(Cl)cc(C)c21 [SG53, 3-(4-(5-Chloro-7-methyl-1-propyl-1H-pyrrolo[3,2-b]pyridin-3-yl)pyrimidin-2-ylamino)benzenesulfonamide] | – | – | –

Reference: patent US20140303163A1, “USE OF KINASE INHIBITORS IN PREVENTING AND TREATING INFLAMMATORY DISORDER” (priority 2011, published 2014)
